This is an account of results in patent publication US20220133711A1, “CAMPTOTHECIN DERIVATIVES” (priority 2019, published 2022).

Where two headings read alike, the source gives them in different places.

What all share (format): cell-based
Experiment [1] concerns HSC-2. The experiment is described as follows: In vitro cytotoxicity assay (WST-8 cell viability, 5 days). As to conditions: Homo sapiens. As for the experimental part:
(§1) Cytotoxic potencies were assessed in flat-bottomed 96 well plates (Costar) using a water-soluble tetrazonium salt (WST-8) based cell viability assay (Dojindo, Molecular Technologies, Inc.) as previously described (Kovtun Y V, et al. Antibody-maytansinoid conjugates designed to bypass multidrug resistance. Cancer Res 2010; 70(6):2528-37). Briefly, human tumor cells (1,000-5,000 cells/well, depending on the cell line), in the appropriate culture medium were incubated, with conjugates in the presence or absence of an excess of the corresponding unconjugated antibodies, or with the metabolites for 5 days, at 37° C., 6% CO2. Cell viability was determined from background-corrected WST-8 absorbance.
For orientation: Tetrazolium assays rely on reduction of a dye to a coloured formazan, in cell work by metabolically active cells.

In experiment [2] the test system is N-Luc (Namalwa cells stably transfected with the Luciferase gene). The experiment is described as above. As to conditions: Homo sapiens. How it is done:
as §1

The subject of experiment [3] is SUDHL-1. The experiment is described as above. To be noted: Homo sapiens, SU-DHL-1, read-out: In vitro cytotoxicity (IC50) SUDHL-1. As for the experimental part: as §1
The subject of experiment [4] is MDA-MB-468. The experiment is described as above. As to conditions: Homo sapiens, MDA-MB-468, read-out: In vitro cytotoxicity (IC50) MDA-MB-468. How it is done:
as §1

Experiment [5] deals with KB. The experiment is described as follows: cells. To be noted: Homo sapiens, read-out: In vitro cytotoxicity (IC50) KB. How it is done:
as §1

The test system of experiment [6] is Namalwa. The experiment is described as follows: In vitro cytotoxicity assay (WST-8 cell viability, 5 days). To be noted: Homo sapiens, read-out: In vitro cytotoxicity (IC50) Namalwa. As for the experimental part:
as §1

The mark [7] stands for this setting: HSC-2, read-out: In vitro cytotoxicity (IC50) HSC-2, non-conjugated compounds, Table 7A.
[8] abbreviates: read-out: In vitro cytotoxicity (IC50) N-Luc, non-conjugated compounds, Table 7A.
Where [9] appears, read: HSC-2, read-out: In vitro cytotoxicity (IC50) HSC-2.
Where [10] appears, read: read-out: In vitro cytotoxicity (IC50) N-Luc, non-conjugated compounds, Table 7B.
Setting [11] is: HSC-2, read-out: In vitro cytotoxicity (IC50) HSC-2, non-conjugated compounds, Table 7B.

Take `CC[C@@]1(O)C(=O)OCc2c1cc1n(c2=O)Cc2c-1nc1cc(F)c(SC)cc1c2CNC(=O)CO` [Compound 7b]: the IC50 (in general, the concentration that gives 50% inhibition) came to 7 nM in experiment [1] (setting [7]) and 2 nM in experiment [2] (setting [8]).
Consider `CC[C@@]1(O)C(=O)OCc2c1cc1n(c2=O)Cc2c-1nc1cc(F)c(C)cc1c2CNC(=O)CCCCCSC` [Compound 35a], for which the IC50 was found to be 7 nM in experiment [1] (setting [7]) and 0.6 nM in experiment [3].
For `CC[C@@]1(O)C(=O)OCc2c1cc1n(c2=O)Cc2c-1nc1cc(F)c(C)cc1c2CN(Cc1ccccc1)C(=O)CO` [Compound 7c], the IC50 in experiment [1] (setting [7]) came out at 1 nM; in experiment [4], 1 nM; in experiment [2] (setting [8]) it was 0.7 nM; in experiment [3] it was 0.2 nM.
`CC[C@@]1(O)C(=O)OCc2c1cc1n(c2=O)Cc2c-1nc1cc(F)c(C)cc1c2C[S+]([O-])CCO` (some centres unmarked) [Compound 34a]: the results for the IC50 in experiment [1] (setting [7]), in experiment [4] and in experiment [5] were 9 nM, 7 nM and 7 nM, respectively.
In the case of `CC[C@@]1(O)C(=O)OCc2c1cc1n(c2=O)Cc2c-1nc1cc(F)c(SC)cc1c2CCl` [Compound 4b], the results for the concentration for half-maximal inhibition (IC50) in experiment [1] (setting [7]) and in experiment [6] were 3 nM and 1 nM, respectively.
As to `CC[C@@]1(O)C(=O)OCc2c1cc1n(c2=O)Cc2c-1nc1cc(F)c(C)cc1c2CNC(=O)CO` [Compound 7a], the IC50 in experiment [1] (setting [9]) is 2 nM; in experiment [1] (setting [7]), 4 nM; in experiment [4], 3 nM; in experiment [2] (setting [8]) it was 1 nM; in experiment [2] (setting [10]), 0.9 nM; in experiment [6], 0.9 nM. Besides, the IC50 in experiment [3] worked out at 0.5 nM.
For `CC[C@@]1(O)C(=O)OCc2c1cc1n(c2=O)Cc2c-1nc1cc(F)c(C)cc1c2CS(=O)(=O)CCO` [Compound 34b], the values for the IC50 in experiment [1] (setting [7]), in experiment [4] and in experiment [5] were 3 nM, 3 nM and 2 nM, respectively.
On to `CC[C@@]1(O)C(=O)OCc2c1cc1n(c2=O)Cc2c-1nc1cc(F)c(C)cc1c2CCCCSC` [Compound 33a], for which the IC50 in experiment [1] (setting [7]) was found to be 2 nM; in experiment [6] it was 0.7 nM.
As to `CC[C@@]1(O)C(=O)OCc2c1cc1n(c2=O)Cc2c-1nc1cc(F)c(C)cc1c2CSCCSC` [Compound 8p], the IC50 in experiment [1] (setting [11]) was determined as 0.6 nM; in experiment [2] (setting [10]) it was 0.2 nM.
With `CC[C@@]1(O)C(=O)OCc2c1cc1n(c2=O)Cc2c-1nc1cc(F)c(C)cc1c2CCCCO` [Compound 8a], the IC50 in experiment [1] (setting [7]) amounted to 0.6 nM; in experiment [1] (setting [11]), 0.5 nM; in experiment [4], 2 nM; in experiment [2] (setting [8]) it was 0.9 nM; in experiment [2] (setting [10]) it was 0.2 nM; in experiment [6] it was 0.2 nM. Further, the IC50 in experiment [5] was 0.6 nM.
`CC[C@@]1(O)C(=O)OCc2c1cc1n(c2=O)Cc2c-1nc1cc(F)c(C)cc1c2CSCCO` [Compound 8c]: the values for the IC50 in experiment [1] (setting [9]) and in experiment [2] (setting [10]) were 0.4 nM and 0.2 nM, respectively.
With `CC[C@@]1(O)C(=O)OCc2c1cc1n(c2=O)Cc2c-1nc1cc(F)c(C)cc1c2CCl` [Compound 4a], the concentration for half-maximal inhibition (IC50) in experiment [1] (setting [7]) was 4 nM; in experiment [6] it was 3 nM.
